Source: patent US20260373036A1, “A PERSONAL CARE COMPOSITION” (Concpco, Inc., d/b/a UNILEVER, priority 2022, published 2026)

System: TXNRD1 (Thioredoxin reductase 1) gene
Experiment: TXNRD1 (thioredoxin reductase 1) gene expression in normal human epidermal keratinocytes (NHEK) by RT-PCR
Assay type: cell-based
Settings: 24 hours, normalized to YWHAZ, relative to blank control (1.0)
Protocol: The normal human epidermal keratinocytes (NHEK, Lot: NHS-2021-006) (Archgene Biotechnology, Shanghai, China) were incubated in medium together with or without actives for 24 hours. After incubation, the total RNA for each NHEK was extracted using Qiagen Mini RNeasy kit (Qiagen, Cat. 74106) according to manufacturer's protocol.
The extracted RNA was quantified using Nanodrop 2000 spectrometer (Thermo Fisher Scientific, Waltham, MA, US) and reverse transcribed to generate the template cDNA using the ABScript III RT Mast Mix (Cat. BK20428, ABclonal) according to manufacturer's protocol. Amplification of the gene encoding the TXNRD1 (Thioredoxin reductase 1) gene was performed with RT-PCR reagent (Universal SYBR Green Fast qPCR Mix kit, Cat.: RK21203, ABclonal) on the ABI Vii 7 Real-Time PCR Systems (Applied Biosystems, Thermo fisher scientific, Carlsbad, CA, USA). The Tyrosine 3-Monooxygenase/Tryptophan 5-Monooxygenase Activation Protein Zeta gene (YWHAZ) was selected as the housekeeping gene and all data on relative expression of the target genes was normalized to YWHAZ.

| Molecule | fold induction at 5 µM (Homo sapiens, 5 μM of HR in medium, read-out: Fold change for gene expression TXNRD1) | Fold change for gene expression TXNRD1 (0.05 wt % of LCC in medium) |
| --- | --- | --- |
| CCCCCCc1ccc(O)cc1O [HR, 4-hexyl resorcinol] | 1 |  |
| Lysine carboxymethyl cysteinate [LCC] |  | 1.2 |
